Test results taken from ChEMBL document CHEMBL1150070, “A novel cytotoxic macrolide, superstolide B, related to superstolide A, from the New Caledonian marine sponge Neosiphonia superstes” (J Nat Prod, 1994).
≈ marks a conversion by molar mass, not a printed value.

Assays:
Assay type in all cases: functional, cell-based
P388 = assay: Cytotoxicity against mouse P388 cells
KB = assay: Cytotoxicity against human KB cells
[1] = Cytotoxicity against human NSCLC-N6-L16 cells

CO[C@@H]1C[C@H](OC(N)=O)[C@@H]2C=C[C@@H]3/C=C(C)/C=C/[C@@H](C)[C@H](/C(C)=C/[C@@H](C)NC(C)=O)OC(=O)/C=C/C=C(C)\C=C\[C@]3(C)[C@@H]2C1 [SUPERSTOLIDE B]
IC50 (P388): 3 ng/mL (≈ 4.94 nM)
IC50 (KB): 5 ng/mL (≈ 8.24 nM)
IC50 [1]: 0.039 µg/mL (≈ 64.3 nM)
